Results from patent US11141403B2, “Benzimidazoles and indoles as taro inhibitors” (MERCK SHARP & DOHME CORP., priority 2015, dated 2021).
Where two headings read alike, the source gives them in different places.

Test system: MRSA COL (MB5393)
Assay: TarO Inhibitor/β-Lactam Synergy Assay
Format: cell-based, Staphylococcus aureus
Settings: 20 hours; for IC95: TarO inhibitor alone, OD600, 95% growth inhibition, read-out: MITC95 TarO inhibitor alone, Bacteria: SA_MB5393; for MITC95 TarO inhibitor + 4 μg/mL IPM; Bacteria: SA_MB5393: in combination with 4 μg/mL imipenem; for MITC95 TarO inhibitor + 4 μg/mL IPM; Bacteria: SA_MB5393 / MITC95 TarO inhibitor + 8 μg/mL DCX; Bacteria: SA_MB5393: OD600; for MITC95 TarO inhibitor + 8 μg/mL DCX; Bacteria: SA_MB5393: in combination with 8 μg/mL dicloxacillin
Method: The TarO inhibitor/β-lactam synergy assay was performed to measure the re-sensitization of methicillin-resistant Staphylococci bacteria (MB5393: MRSA COL) to β-lactam antibiotics by TarO inhibitors. MRSA COL is a hospital-acquired penicillinase-negative clinically isolated strain commonly used in Staphylococcus aureus studies and is fully resistant to the antimicrobial bioactivity of β-lactam antibiotics, including but not limited to imipenem and dicloxacillin. […] MRSA COL is fully refractory to β-lactam antibiotic effect at the current clinical breakpoint concentrations and as such MRSA COL is fully viable at these concentrations.
The β-lactam antibiotic concentration was fixed at the clinical breakpoint (imipenem 4 μg/ml or dicloxacillin 8 μg/ml) and the TarO inhibitors were titrated by 2 fold starting from the highest concentration of 200 μM with final DMSO concentration of 2% in the assay. 5×10^5 colony forming unit of MRSA COL in cation-adjusted Mueller Hinton broth (CAMHB) was then mixed and the assay plate was incubated for 20 hours at 37° C. without shaking. After 20 hours, the optical density at 600 nm (OD600) was read for all wells to determine relative growth of MRSA COL.

CCN(C(=O)CCn1c2ccc(CO)cc2nc1[C@H]1CC[C@H](CC)CC1)C1CCCCC1 [Example 1, N-cyclohexyl-N-ethyl-3-(2-(trans-4-ethylcyclohexyl)-5-(hydroxymethyl)-1H-benzo[d]imidazol-1-yl)propanamide]
IC95 (Staphylococcus aureus): > 200 µM | MITC95 TarO inhibitor + 4 μg/mL IPM; Bacteria: SA_MB5393: 1.82 µM | MITC95 TarO inhibitor + 8 μg/mL DCX; Bacteria: SA_MB5393: 6.25 µM

CCN(C(=O)CCn1c2cccnc2nc1[C@H]1CC[C@H](CC)CC1)C1CCCCC1 [Example 2, N-cyclohexyl-N-ethyl-3-[2-(trans-4-ethylcyclohexyl)-1H-imidazo[4,5-b]pyridin-1-yl]propanamide]
IC95 (Staphylococcus aureus): > 200 µM | MITC95 TarO inhibitor + 4 μg/mL IPM; Bacteria: SA_MB5393: 1.88 µM | MITC95 TarO inhibitor + 8 μg/mL DCX; Bacteria: SA_MB5393: 18.75 µM

CCN(C(=O)CCn1c2cc(C#N)ccc2nc1[C@H]1CC[C@H](CC)CC1)C1CCCCC1 [Example 3, 3-[6-cyano-2-(trans-4-ethylcyclohexyl)-1H-benzimidazol-1-yl]-N-cyclohexyl-N-ethylpropanamide]
IC95 (Staphylococcus aureus): > 200 µM | MITC95 TarO inhibitor + 4 μg/mL IPM; Bacteria: SA_MB5393: 4.17 µM | MITC95 TarO inhibitor + 8 μg/mL DCX; Bacteria: SA_MB5393: 20.83 µM

CCN(C(=O)CCn1c2cnccc2nc1[C@H]1CC[C@H](CC)CC1)C1CCCCC1 [Example 4, N-cyclohexyl-N-ethyl-3-[2-(trans-4-ethylcyclohexyl)-3H-imidazo[4,5-c]pyridin-3-yl]propanamide]
IC95 (Staphylococcus aureus): > 200 µM | MITC95 TarO inhibitor + 4 μg/mL IPM; Bacteria: SA_MB5393: 4.17 µM | MITC95 TarO inhibitor + 8 μg/mL DCX; Bacteria: SA_MB5393: 41.67 µM

CCN(C(=O)CCn1c2ccc(Br)cc2nc1[C@H]1CC[C@H](CC)CC1)C1CCCCC1 [Example 5, 3-[5-bromo-2-(trans-4-ethylcyclohexyl)-1H-benzimidazol-1-yl]-N-cvclohexyl-N-ethylpropanamide]
IC95 (Staphylococcus aureus): > 200 µM | MITC95 TarO inhibitor + 4 μg/mL IPM; Bacteria: SA_MB5393: 0.01 µM | MITC95 TarO inhibitor + 8 μg/mL DCX; Bacteria: SA_MB5393: 0.02 µM

CCN(C(=O)CCn1c2cc(F)ccc2nc1[C@H]1CC[C@H](CC)CC1)C1CCCCC1 [Example 6, N-cyclohexyl-N-ethyl-3-(2-(trans-4-ethvlcyclohexyl)-6-fluoro-1H-benzo[d]imidazol-1-yl)propanamide]
IC95 (Staphylococcus aureus): > 200 µM | MITC95 TarO inhibitor + 4 μg/mL IPM; Bacteria: SA_MB5393: 0.13 µM | MITC95 TarO inhibitor + 8 μg/mL DCX; Bacteria: SA_MB5393: 0.59 µM

CCN(C(=O)CCn1c2ccc(C(F)(F)F)cc2nc1[C@H]1CC[C@H](CC)CC1)C1CCCCC1 [Example 7, N-cyclohexyl-N-ethyl-3-[2-(trans-4-ethylcyclohexyl)-5-(trifluoromethyl)-1H-benzimidazol-1-yl]propanamide]
IC95 (Staphylococcus aureus): > 200 µM | MITC95 TarO inhibitor + 4 μg/mL IPM; Bacteria: SA_MB5393: 0.20 µM | MITC95 TarO inhibitor + 8 μg/mL DCX; Bacteria: SA_MB5393: 0.20 µM

CCN(C(=O)CCn1c2cc(Br)ccc2nc1[C@H]1CC[C@H](CC)CC1)C1CCCCC1 [Example 8, 3-[6-bromo-2-(trans-4-ethylcyclohexyl)-1H-benzimidazol-1-yl]-N-cyclohexyl-N-ethylpropanamide]
IC95 (Staphylococcus aureus): > 200 µM | MITC95 TarO inhibitor + 4 μg/mL IPM; Bacteria: SA_MB5393: 0.06 µM | MITC95 TarO inhibitor + 8 μg/mL DCX; Bacteria: SA_MB5393: 0.22 µM

CCN(C(=O)CCn1c2cccc(F)c2nc1[C@H]1CC[C@H](CC)CC1)C1CCCCC1 [Example 9, N-cyclohexyl-N-ethyl-3-[2-(trans-4-ethylcyclohexyl)-4-fluoro-1H-benzimidazol-1-yl]propanamide]
IC95 (Staphylococcus aureus): > 200 µM | MITC95 TarO inhibitor + 4 μg/mL IPM; Bacteria: SA_MB5393: 0.13 µM | MITC95 TarO inhibitor + 8 μg/mL DCX; Bacteria: SA_MB5393: 0.79 µM

CCN(C(=O)CCn1c2ccc(F)cc2nc1[C@H]1CC[C@H](CC)CC1)C1CCCCC1 [Example 10, N-cyclohexyl-N-ethyl-3-[2-(trans-4-ethylcyclohexyl)-5-fluoro-1H-benzimidazol-1-yl]propanamide]
IC95 (Staphylococcus aureus): > 200 µM | MITC95 TarO inhibitor + 4 μg/mL IPM; Bacteria: SA_MB5393: 0.004 µM | MITC95 TarO inhibitor + 8 μg/mL DCX; Bacteria: SA_MB5393: 0.03 µM

CCN(C(=O)CCn1c2c(F)cccc2nc1[C@H]1CC[C@H](CC)CC1)C1CCCCC1 [Example 11, N-cyclohexyl-N-ethyl-3-[2-(trans-4-ethylcyclohexyl)-7-fluoro-1H-benzimidazol-1-yl]propanamide]
IC95 (Staphylococcus aureus): > 200 µM | MITC95 TarO inhibitor + 4 μg/mL IPM; Bacteria: SA_MB5393: 0.40 µM | MITC95 TarO inhibitor + 8 μg/mL DCX; Bacteria: SA_MB5393: 1.04 µM

CCN(C(=O)CCn1c(C2CCCN(C(=O)OC(C)(C)C)C2)nc2cc(F)ccc21)C1CCCCC1 (stereo not drawn) [Example 12, tert-butyl 3-(1-{3-[cyclohexyl(ethyl)amino]-3-oxopropyl}-5-fluoro-1H-benzimidazol-2-yl)piperidine-1-carboxylate]
IC95 (Staphylococcus aureus): > 200 µM | MITC95 TarO inhibitor + 4 μg/mL IPM; Bacteria: SA_MB5393: 0.50 µM | MITC95 TarO inhibitor + 8 μg/mL DCX; Bacteria: SA_MB5393: 1.09 µM

CCOC(=O)N1CCCC(c2nc3cc(F)ccc3n2CCC(=O)N(CC)C2CCCCC2)C1 (stereo not drawn) [Example 13, Ethyl 3-(1-{3-[cyclohexyl(ethyl)amino]-3-oxopropyl}-5-fluoro-1H-benzimidazol-2-yl)piperidine-1-carboxylate]
IC95 (Staphylococcus aureus): > 200 µM | MITC95 TarO inhibitor + 4 μg/mL IPM; Bacteria: SA_MB5393: 0.35 µM | MITC95 TarO inhibitor + 8 μg/mL DCX; Bacteria: SA_MB5393: 2.19 µM

CCN(C(=O)CCn1c2cc(CO)ccc2nc1[C@H]1CC[C@H](CC)CC1)C1CCCCC1 [Example 14, N-cyclohexyl-N-ethyl-3-[2-(trans-4-ethylcyclohexyl)-6-(hydroxymethyl)-1H-benzimidazol-1-yl]propanamide]
IC95 (Staphylococcus aureus): > 200 µM | MITC95 TarO inhibitor + 4 μg/mL IPM; Bacteria: SA_MB5393: 0.52 µM | MITC95 TarO inhibitor + 8 μg/mL DCX; Bacteria: SA_MB5393: 3.13 µM

CCN(C(=O)CCn1c(C2CCCN(C(=O)OC(C)(C)C)C2)nc2cc(F)ccc21)C1CCCCC1 (stereo not drawn) [Example 15, tert-butyl 3-(1-{3-[cyclohexyl(ethyl)amino]-3-oxopropyl}-5-fluoro-1H-benzimidazol-2-yl)piperidine-1-carboxylate]
IC95: >200 µM | MITC95 TarO inhibitor + 4 μg/mL IPM; Bacteria: SA_MB5393: 0.52 µM | MITC95 TarO inhibitor + 8 μg/mL DCX; Bacteria: SA_MB5393: 4.17 µM

CCN(C(=O)CCn1c2ccc(OC)cc2nc1[C@H]1CC[C@H](CC)CC1)C1CCCCC1 [Example 16, N-cyclohexyl-N-ethyl-3-[2-(trans-4-ethylcyclohexyl)-5-methoxy-1H-benzimidazol-1-yl]propanamide]
IC95 (Staphylococcus aureus): > 200 µM | MITC95 TarO inhibitor + 4 μg/mL IPM; Bacteria: SA_MB5393: 1.04 µM | MITC95 TarO inhibitor + 8 μg/mL DCX; Bacteria: SA_MB5393: 14.58 µM

CCN(C(=O)CCn1c2ccncc2nc1[C@H]1CC[C@H](CC)CC1)C1CCCCC1 [Example 17, N-cyclohexyl-N-ethyl-3-[2-(trans-4-ethylcyclohexyl)-1H-imidazo[4,5-c]pyridin-1-yl]propanamide]
IC95 (Staphylococcus aureus): > 200 µM | MITC95 TarO inhibitor + 4 μg/mL IPM; Bacteria: SA_MB5393: 0.98 µM | MITC95 TarO inhibitor + 8 μg/mL DCX; Bacteria: SA_MB5393: 6.25 µM

CCOC(=O)N1CCCC(c2nc3cc(F)ccc3n2CCC(=O)N(CC)C2CCCCC2)C1 (stereo not drawn) [Example 18, Ethyl 3-(1-{3-[cyclohexyl(ethyl)amino]-3-oxopropyl}-5-fluoro-1H-benzimidazol-2-yl)piperidine-1-carboxylate]
IC95: >200 µM | MITC95 TarO inhibitor + 4 μg/mL IPM; Bacteria: SA_MB5393: 1.09 µM | MITC95 TarO inhibitor + 8 μg/mL DCX; Bacteria: SA_MB5393: 23.75 µM

CCN(C(=O)CCn1c2ncccc2nc1[C@H]1CC[C@H](CC)CC1)C1CCCCC1 [Example 19, N-cyclohexyl-N-ethyl-3-[2-(trans-4-ethylcyclohexyl)-3H-imidazo[4,5-b]pyridin-3-yl]propanamide]
IC95 (Staphylococcus aureus): > 200 µM | MITC95 TarO inhibitor + 4 μg/mL IPM; Bacteria: SA_MB5393: 1.95 µM | MITC95 TarO inhibitor + 8 μg/mL DCX; Bacteria: SA_MB5393: 28.13 µM

CCN(C(=O)CCn1c2cccc(C(F)F)c2nc1[C@H]1CC[C@H](C)CC1)C1CCCCC1 [Example 20, N-cyclohexyl-3-[4-(difluoromethyl)-2-(trans-4-methylcyclohexyl)-1H-benzimidazol-1-yl]-N-ethylpropanamide]
IC95 (Staphylococcus aureus): 100 µM | MITC95 TarO inhibitor + 4 μg/mL IPM; Bacteria: SA_MB5393: 1.56 µM | MITC95 TarO inhibitor + 8 μg/mL DCX; Bacteria: SA_MB5393: 12.50 µM

CCN(C(=O)CCn1c(C2CCN(C(=O)OC(C)(C)C)C2)nc2cc(F)ccc21)C1CCCCC1 (stereo not drawn) [Example 21, tert-butyl 3-(1-{3-[cyclohexyl(ethyl)amino]-3-oxopropyl}-5-fluoro-1H-benzimidazol-2-yl)pyrrolidine-1-carboxylate]
IC95 (Staphylococcus aureus): > 200 µM | MITC95 TarO inhibitor + 4 μg/mL IPM; Bacteria: SA_MB5393: 0.78 µM | MITC95 TarO inhibitor + 8 μg/mL DCX; Bacteria: SA_MB5393: 13.54 µM

CCN(C(=O)CCn1c2ccc(C#N)cc2nc1[C@H]1CC[C@H](CC)CC1)C1CCCCC1 [Example 22, 3-[5-cyano-2-(trans-4-ethylcyclohexyl)-1H-benzimidazol-1-yl]-N-cyclohexyl-N-ethylpropanamide]
IC95 (Staphylococcus aureus): > 200 µM | MITC95 TarO inhibitor + 4 μg/mL IPM; Bacteria: SA_MB5393: 0.36 µM | MITC95 TarO inhibitor + 8 μg/mL DCX; Bacteria: SA_MB5393: 0.88 µM

CCOC(=O)N1CCCC(c2nc3ccc(F)cc3n2CCC(=O)N(CC)C2CCCCC2)C1 (stereo not drawn) [Example 23, Ethyl 3-(1-{3-[cyclohexyl(ethyl)amino]-3-oxopropyl}-6-fluoro-1H-benzimidazol-2-yl)piperidine-1-carboxylate]
IC95 (Staphylococcus aureus): > 200 µM | MITC95 TarO inhibitor + 4 μg/mL IPM; Bacteria: SA_MB5393: 9.38 µM | MITC95 TarO inhibitor + 8 μg/mL DCX; Bacteria: SA_MB5393: 37.50 µM
